The target of the assay is T1, GCase (Homo sapiens, UniProt P04062).
T1 construct: endogenous in cells; host or cells: HeLa cells
T1 sequence (P04062 40-536): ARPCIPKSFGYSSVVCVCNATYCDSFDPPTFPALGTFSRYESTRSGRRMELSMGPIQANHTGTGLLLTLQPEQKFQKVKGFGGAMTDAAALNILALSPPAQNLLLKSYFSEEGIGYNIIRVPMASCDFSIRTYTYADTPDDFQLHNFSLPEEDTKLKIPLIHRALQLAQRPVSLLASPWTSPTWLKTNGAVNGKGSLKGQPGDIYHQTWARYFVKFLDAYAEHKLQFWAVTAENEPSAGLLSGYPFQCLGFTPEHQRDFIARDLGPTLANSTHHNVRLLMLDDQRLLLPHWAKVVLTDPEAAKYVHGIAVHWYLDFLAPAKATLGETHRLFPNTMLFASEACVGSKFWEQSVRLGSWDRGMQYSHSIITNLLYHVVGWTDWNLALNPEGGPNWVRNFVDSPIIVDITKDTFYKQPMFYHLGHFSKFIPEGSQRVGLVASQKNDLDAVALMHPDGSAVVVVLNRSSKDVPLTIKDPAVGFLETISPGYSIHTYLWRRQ
Briefly: activation of GCase in a live cell PFB assay in HELA cells. It counts as cell-based. How it is done: Exemplary compounds were evaluated for activation of GCase in a live cell PFB assay in HELA cells (essentially as described in Ysselstein et al., “LRRK2 kinase activity regulates lysosomal glucocerebrosidase in neurons derived from Parkinson's disease patients” Nature Communications (2019) 10:5570). […] EC50 ranges: A: <10 μM; B: >10-50 μM; C: >50-100 μM; D: >100 μM.

The mark [1] stands for this setting: activation of GCase, EC50 ranges.

These results are taken from US20250034170A1, “SMALL MOLECULE MODULATORS OF GLUCOCEREBROSIDASE ACTIVITY AND USES THEREOF” (Vanqua Bio, Inc., priority 2021, published 2025).

pEC50: −log10 of the molar value.

The compound `Cc1ncc(N2CCC3(CCN(c4ncc5c(C)nn(CC(F)(F)F)c5n4)C3)C2)c(C(F)(F)F)n1` (centres unmarked) [Cmpd 659] showed a pEC50 under setting [1] of 4.30 to 5.00.
Same read-out and setting: the same measure for `Cc1nn(CC(F)F)c2nc(N3CCC4(CCN(c5cc(C(F)F)ccn5)CC4)C3)cnc12` [Compound 163, 2-[1-(2,2-difluoroethyl)-3-methyl-1H-pyrazolo[3,4-b]pyrazin-6-yl]-8-[4-(difluoromethyl)pyridin-2-yl]-2,8-diazaspiro[4.5]decane]: more than 5.00; for `O=C1N(c2ccnc(C(F)(F)F)c2)CCC12CCN(c1cnc3cnn(CC(F)F)c3n1)CC2` [Cmpd 676]: more than 5.00.
For `Cc1nn(CC(F)(F)F)c2nc(N3CCC4(CCN(c5cnc(C(F)(F)F)nc5)C4)C3)ncc12` (centres unmarked) [Cmpd 615], for the setting “EC50 given as range classes”, the pEC50 was 4.30 to 5.00.
Compound `Cc1nn(C2COC2)c2nc(N3CC4(CCN(c5ccnc(C(F)(F)F)c5)C4=O)C3)cnc12` [Cmpd 347] had a negative logarithm of the EC50 (pEC50) under setting [1] of 4.30 to 5.00.
Consider `Cc1nn(CC(F)F)c2nc(N3CCC4(CN(c5cnc(C(F)(F)F)nc5)C4)C3)ncc12` [Cmpd 433], for which the pEC50 (EC50 given as range classes) is 4.30 to 5.00.
Still for that read-out and setting: the same measure for `O=C1N(c2cnc(C(F)(F)F)cn2)C(=O)C2(CCN(c3cnc4cnn(CC(F)F)c4n3)CC2)N1Cc1cc(F)cc(F)c1` [Cmpd 821]: more than 5.00.
Under setting [1], `CCN1C(=O)N(c2ccc(C(F)(F)F)cc2)C(=O)C12CCN(c1cnc3cnn(C4COC4)c3n1)CC2` [Cmpd 869] gave a pEC50 of 4.30 to 5.00.
Still for that read-out and setting: the same measure for `O=C1CC2(CCN(c3cnc4cnn(CC(F)F)c4n3)CC2)CN1Cc1ccnc(OC(F)F)c1` [Cmpd 919]: more than 5.00; for `Cc1ncc(N2CCC3(CCN(c4cnc5cnn(CC(F)F)c5n4)CC3)C2)cn1` [Cmpd 759]: more than 5.00.
On the same count and under the same terms, for `O=C(c1cnc(C(F)(F)F)nc1)N1CC2(CCN(c3cnc4cnn(CC(F)F)c4n3)C2)C1` [Cmpd 325] the value was 4.30 to 5.00; for `CCn1ncc2cnc(N3CCC4(CC3)CC(=O)N(c3ccc(C(F)(F)F)nc3)C4)nc21` [Cmpd 889], more than 5.00.
Same read-out and setting: for `Cc1nc(N2CC3(CCN(c4cnc5cnn([C@H]6CCOC6)c5n4)C3)C2)cc(C(F)(F)F)n1` [Cmpd 1145] the value was 4.30 to 5.00; for `CCOc1nn(CC(F)F)c2nc(N3CCC4(CC3)CC(=O)N(c3ccc(C(F)(F)F)nc3)C4)cnc12` [Cmpd 947], more than 5.00.
`FC(F)Cn1ncc2ncc(N3CCC4(CC3)CN(c3ccnc(C(F)(F)F)c3)C4)nc21` [Compound 68, 7-[1-(2,2-difluoroethyl)-1H-pyrazolo[3,4-b]pyrazin-6-yl]-2-[2-(trifluoromethyl)pyridin-4-yl]-2,7-diazaspiro[3.5]nonane] showed a pEC50 under setting [1] of more than 5.00.
The compound `FC(F)Cn1ncc2ncc(N3CCC4(CCN(c5ccnc(C(F)(F)F)c5)CC4)CC3)nc21` [Cmpd 812] had a pEC50 (EC50 given as range classes) of more than 5.00.
Compound `FC(F)(F)c1cc(N2CCC3(CCN(c4cnc5cnn(C6COC6)c5n4)C3)C2)ccn1` (centres unmarked) [Cmpd 487] had a pEC50 under setting [1] of 4.30 to 5.00.
On the same count and under the same terms, for `O=C1N(c2cccc(C(F)(F)F)n2)CCC12CCCN(c1cnc3cnn(CC(F)F)c3n1)C2` (centres unmarked) [Compound 96, 7-[1-(2,2-difluoroethyl)-1H-pyrazolo[3,4-b]pyrazin-6-yl]-2-[6-(trifluoromethyl)pyridin-2-yl]-2,7-diazaspiro[4.5]decan-1-one] the value was 4.30 to 5.00.
Regarding `CCc1cnc(C(F)(F)F)cc1N1CC2(CCN(c3cnc4cnn(CC(F)F)c4n3)C2)C1` [Cmpd 1032], the pEC50 (EC50 given as range classes) is more than 5.00.
Compound `Cn1c(N2CCC3(CN(c4ccc(C(F)(F)F)cn4)C3)C2)nc2c(cnn2CC(F)F)c1=O` [Cmpd 996] gave a pEC50 (EC50 given as range classes) of 4.30 to 5.00.
`COc1nn(CC(F)F)c2nc(N3CCC4(CCN(c5cc(C(F)(F)F)nc(C)n5)C4)CC3)cnc12` [Cmpd 1096] had a negative logarithm of the EC50 (pEC50) under setting [1] of more than 5.00.
Under setting [1], `O=C1N(c2cc(C(F)(F)F)ccn2)CCC12CCCN(c1cnc3cnn(CC(F)F)c3n1)C2` (centres unmarked) [Compound 98, 7-[1-(2,2-difluoroethyl)-1H-pyrazolo[3,4-b]pyrazin-6-yl]-2-[4-(trifluoromethyl)pyridin-2-yl]-2,7-diazaspiro[4.5]decan-1-one] showed a pEC50 of 4.00 to 4.30.
The compound `Cc1nc(N2CCC3(CCN(c4ncc5c(C)nn(CC(F)F)c5n4)C3)C2)cc(C(F)(F)F)n1` (centres unmarked) [Cmpd 541] had a pEC50 under setting [1] of more than 5.00.
For the compound `O=C1CC2(CCN(c3cnc4cnn(CC(F)F)c4n3)CC2)CN1c1ccc(C(F)(F)F)nc1OC(F)F` [Cmpd 780], the negative logarithm of the EC50 (pEC50) (EC50 given as range classes) was more than 5.00.
Take `O=C1N(c2ccc(C(F)(F)F)nc2)CC(c2ccccc2)C12CCN(c1cnc3cnn(CC(F)F)c3n1)CC2` (centres unmarked) [Cmpd 247]: under setting [1], the pEC50 was more than 5.00.
Same read-out and setting: the same measure for `O=C1CC2(CCN1c1cnc3cnn(CC(F)F)c3n1)CN(c1cccc(C(F)(F)F)n1)C2` [Cmpd 667]: 4.00 to 4.30.
Compound `FC(F)Cn1ncc2ncc(N3CC4(CCN(c5ccc(C(F)(F)F)cn5)C4)C3)nc21` [Compound 182, 2-[1-(2,2-difluoroethyl)-1H-pyrazolo[3,4-b]pyrazin-6-yl]-6-[5-(trifluoromethyl)pyridin-2-yl]-2,6-diazaspiro[3.4]octane] had a pEC50 (EC50 given as range classes) of more than 5.00.
Same read-out and setting: the same measure for `FC(F)(F)c1ccc(N2CCC3(CCN(c4cncc(-c5nncs5)n4)CC3)C2)nn1` [Cmpd 825]: 4.30 to 5.00.
The compound `Cc1cn2nc(N3CCC4(CN(c5cc(C(F)(F)F)nc(C)n5)C4)C3)ccc2n1` [Cmpd 638] showed a pEC50 under setting [1] of 4.30 to 5.00.
`O=C1CC2(CCN(c3cnc4cnn(CC(F)F)c4n3)CC2)CN1c1ccnc(C(F)(F)F)n1` [Cmpd 895] gave a pEC50 under setting [1] of more than 5.00.
Same read-out and setting: for `FC(F)(F)c1ccnc(N2CC3(CCN(c4ncc5cnn(C6COC6)c5n4)CC3)C2)c1` [Cmpd 478] the value was more than 5.00.
Where the note is “EC50 given as range classes”, `CC1(C)CC2(CCN(c3cnc4cnn(CC(F)F)c4n3)CC2)C(=O)N1c1ccc(C(F)(F)F)nc1` [Cmpd 815] gave a pEC50 of 4.30 to 5.00.
With `FC(F)Cn1ncc2ncc(N3CCC4(CCC(Oc5cccc(C(F)(F)F)n5)C4)CC3)nc21` (centres unmarked) [Compound 81, 8-[1-(2,2-difluoroethyl)-1H-pyrazolo[3,4-b]pyrazin-6-yl]-2-{[6-(trifluoromethyl)pyridin-2-yl]oxy}-8-azaspiro[4.5]decane], under setting [1], the negative logarithm of the EC50 (pEC50) is 4.30 to 5.00.
Same read-out and setting: for `FC(F)(F)c1ccc(N2CCC3(CCN(c4cncc(-c5ncccn5)n4)CC3)C2)cn1` [Cmpd 252] the value was 4.30 to 5.00; for `Cc1nc(N2CC3(CCN(c4ncc5cnn(CC(F)(F)F)c5n4)CC3)C2)cc(C(F)(F)F)n1` [Cmpd 566], more than 5.00.
`FC(F)Cn1ncc2ncc(N3CCC4(CCCN(c5ccnc(C(F)(F)F)c5)C4)CC3)nc21` [Cmpd 225]: for the setting “EC50 given as range classes”, the pEC50 was more than 5.00.
On the same count and under the same terms, for `FC(F)Cn1ncc2ncc(N3CCCC4(CCN(c5ccc(C(F)(F)F)nc5)CC4)C3)nc21` [Cmpd 220] the value was more than 5.00.
Take `FC(F)Cn1ncc2ncc(N3CCC4(CC3)CN(c3ncccc3C(F)(F)F)C4)nc21` [Compound 79, 7-[1-(2,2-difluoroethyl)-1H-pyrazolo[3,4-b]pyrazin-6-yl]-2-[3-(trifluoromethyl)pyridin-2-yl]-2,7-diazaspiro[3.5]nonane]: under setting [1], the pEC50 was more than 5.00.
Compound `Cc1cc(C(F)(F)F)ncc1N1CCC2(CCN(c3cnc4cnn(CC(F)F)c4n3)CC2)C1` [Cmpd 753] had a pEC50 under setting [1] of more than 5.00.
`O=C1CC2(CCN(c3ncc4cnn(CC(F)F)c4n3)CC2)CN1c1nccc(C(F)(F)F)n1` [Cmpd 290] had a pEC50 under setting [1] of more than 5.00.
Under setting [1], `FC(F)Cn1ncc2ncc(N3CCC4(CCN(c5cccnc5C(F)(F)F)CC4)C3)nc21` [Compound 170, 2-[1-(2,2-difluoroethyl)-1H-pyrazolo[3,4-b]pyrazin-6-yl]-8-[2-(trifluoromethyl)pyridin-3-yl]-2,8-diazaspiro[4.5]decane] had a pEC50 of 4.30 to 5.00.
Under setting [1], `Cc1nc(N2CCC3(CCN(c4ncc5cnn(CC(F)(F)F)c5n4)C3)C2)cc(C(F)(F)F)n1` (centres unmarked) [Cmpd 548] had a pEC50 of less than 4.00.
Same read-out and setting: the same measure for `FC(F)(F)c1cc(N2CCCC3(C2)CN(c2cnc4cn(Cc5ccccc5)nc4n2)C3)ccn1` [Compound 103, 2-{2-benzyl-2H-pyrazolo[3,4-b]pyrazin-6-yl}-6-[2-(trifluoromethyl)pyridin-4-yl]-2,6-diazaspiro[3.5]nonane]: 4.30 to 5.00; for `O=C(c1cnc(C(F)(F)F)nc1)N1CCC2(CCN(c3cnc4cnn(CC(F)F)c4n3)CC2)C1` [Cmpd 324]: 4.30 to 5.00; for `FC(F)Cn1ncc2ncc(N3CCC4(CCN(c5ccc(C(F)(F)F)nc5)C4)C(F)(F)C3)nc21` (centres unmarked) [Cmpd 266]: more than 5.00.
Under setting [1], `Cc1nn(C2COC2)c2nc(N3CCC4(CCN(c5ccc(C(F)(F)F)nc5)C4)CC3)ncc12` [Cmpd 887] had a pEC50 of 4.30 to 5.00.
The same measure, in the same setting: for `O=C1N(Cc2cccc(C(F)(F)F)n2)CCC12CCN(c1cnc3cnn(CC(F)F)c3n1)CC2` [Cmpd 354] the value was more than 5.00; for `FC(F)(F)c1ncc(N2CC3(CCN(c4ncc5cnn(C6COC6)c5n4)C3)C2)cn1` [Cmpd 434], 4.30 to 5.00.
Compound `FC(F)Cn1ncc2ncc(N3CCCC4(CCN(c5cccc(C(F)(F)F)n5)C4)C3)nc21` (centres unmarked) [Compound 34, 7-[1-(2,2-difluoroethyl)-1H-pyrazolo[3,4-b]pyrazin-6-yl]-2-[6-(trifluoromethyl)pyridin-2-yl]-2,7-diazaspiro[4.5]decane] had a pEC50 under setting [1] of 4.30 to 5.00.
Compound `O=S(=O)(c1ccc(Cl)cc1)N1CC2(CCN(c3cnc4cnn(CC(F)F)c4n3)C2)C1` [Cmpd 386] gave a pEC50 (EC50 given as range classes) of 4.30 to 5.00.
